Assays:
harvester = test: Open glass petri dish exposure (Study E); assay type: in vivo, harvester ants; conditions: mixed with soybean oil
Description: (§1) To address whether the efficacy of PEP will be increased with menthyl salicylate/soybean oil against harvester and black ants.
(§2) glass petri dishes 100 mm were used in this study
(§3) all treated dishes kept open during the time of exposure

German cockroaches = test: Walk-across continuous exposure in treated jars (Study A and B); assay type: in vivo
Protocol: Experiment 1: To determine the lethal activity of menthyl salicylate against cockroaches. Menthyl salicylate was tested at 250 mg/jar against German cockroaches. Two replicates were used in this study. Three adult German cockroaches were used per replicate. Continuous exposure was performed with “walk-across”. All controls and treated roaches were under continuous observations for 6 hrs.
Experiment 1. To determine whether menthyl salicylate acts as a synergist to eugenol and /or PEP blend. This experiment was also conducted against German cockroaches as described in Study A. Several blends of Eugenol/PEP were tested.

black ants = test: Open glass petri dish exposure (Study E); assay type: in vivo; conditions: mixed with soybean oil
Description: as §1, §2, §3

CC1CCC(C(C)C)C(OC(=O)c2ccccc2O)C1 (stereo not drawn) [Menthyl salicylate, 2-hydroxybenzoic acid 5-methyl-2-(1-methylethyl)cyclohexyl ester]
time to 100% M (harvester): ≤ 11 min | killing agent (conclusion in words) (German cockroaches; 250 mg/jar): good killing agent | mortality (M) (German cockroaches; 250 mg/jar, 24 hr after continuous exposure): 100% | KD (knock-down) (German cockroaches; menthyl salicylate 250 mg/jar, 20 min after exposure): 30% | synergy with eugenol/PEP (in words) (German cockroaches; menthyl salicylate at 4-250 mg): synergizes the efficacy of eugenol/PEP | time to 100% M (black ants): ≤ 40 min

From patent US6534099B1, “Pesticidal compositions containing menthyl salicylate” (Ecosmart Technologies, Inc., priority 1993, dated 2003)
